Laboratory results published in PubChem BioAssay (NCI).
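These data come from cells grown in 96-well plates and exposed to compound for 48 hours at five concentrations. TGI is the concentration that stops growth completely.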

Columns and labels:
Experiment in all cases: growth of human tumour cells (NCI), 48 h
[1] = tested on: A498 renal
[2] = tested on: HOP-92 NSCLC
[3] = tested on: NCI-H23 lung
[4] = tested on: OVCAR-5 ovarian
[5] = tested on: OVCAR-8 ovarian
[6] = tested on: SF-268 CNS
[7] = tested on: SK-OV-3 ovarian
[8] = tested on: SR leukemia
[9] = tested on: UACC-257 melanoma
[10] = tested on: LOX IMVI melanoma
[11] = tested on: NCI-H226 lung
[12] = tested on: U251 CNS
[13] = tested on: MDA-MB-231 breast
[14] = tested on: PC-3 prostate

SMILES | TGI [1] [µM] | TGI [2] [µM] | TGI [3] [µM] | TGI [4] [µM] | TGI [5] [µM] | TGI [6] [µM] | TGI [7] [µM] | TGI [8] [µM] | TGI [9] [µM] | TGI [10] [µM] | TGI [11] [µM] | TGI [12] [µM] | TGI [13] [µM] | TGI [14] [µM]
Cc1ccc(S(=O)(=O)N/N=C/c2oc(-c3ccccc3Cl)c(-c3ccccc3Cl)c2[N+](=O)[O-])cc1 | 61.8 | 55 | 29.3 | 34.2 | > 100 | > 100 | > 100 | 64.6 | > 100 | – | – | – | – | –
Cc1ccc(NC(=O)C(=O)C2NC(=S)NC2=O)c([N+](=O)[O-])c1 (stereo not drawn) | > 100 | > 100 | > 100 | > 100 | > 100 | > 100 | > 100 | > 100 | > 100 | > 100 | > 100 | > 100 | – | –
Cn1c(=O)c2c(ncn2CCSS(=O)(=O)O)n(C)c1=O | > 100 | > 100 | > 100 | > 100 | > 100 | > 100 | > 100 | – | > 100 | – | > 100 | > 100 | > 100 | > 100
COc1cc(C2c3[nH]c4ccc(F)cc4c3C[C@H]3COC(=O)N23)cc(OC)c1O (stereo partly drawn) | 25.6 | > 100 | 18.5 | 49.2 | 39.3 | 64.5 | 57.2 | – | > 100 | 31.3 | 32.3 | 25 | 47.4 | > 100
COc1cc(CNC(=O)[C@H](Cc2ccc(O)cn2)NC(C)=O)cc(OC)c1 | > 100 | 75.5 | > 100 | > 100 | – | > 100 | > 100 | – | > 100 | > 100 | > 100 | > 100 | – | > 100
CCOP(=O)(OCC)/C(C#N)=C/c1ccc[nH]1 | – | > 100 | > 100 | > 100 | > 100 | > 100 | > 100 | > 100 | > 100 | > 100 | > 100 | > 100 | – | –
O=C1C=CC[C@H](/C=C/C[C@@H](O)C[C@H](O)/C=C/c2ccccc2)O1 | 27 | 13.7 | 23.5 | 29.5 | 32.9 | 37.7 | 28.3 | – | 26.9 | 13.3 | 28.7 | 25.7 | 22.2 | 27.8
NC(CCCCN=Cc1nc(-c2ccccc2)oc1O)C(=O)O (stereo not drawn) | > 100 | > 100 | > 100 | > 100 | > 100 | > 100 | > 100 | > 100 | > 100 | > 100 | > 100 | > 100 | – | –
CC(C)c1ccc2c(c1)C=C1OC(=O)[C@]3(C)CCC[C@@]2(C)C13 (stereo partly drawn) | – | – | > 100 | – | > 100 | > 100 | > 100 | > 100 | > 100 | – | > 100 | > 100 | > 100 | > 100
O=c1[nH]c(=O)n(C2CC(O)C(CO)O2)cc1C#Cc1cc(C(F)(F)F)cc(C(F)(F)F)c1 (stereo not drawn) | > 100 | > 100 | > 89.3 | > 100 | > 100 | > 100 | > 100 | > 100 | > 100 | > 45.9 | > 100 | > 100 | – | –
CCn1c(-c2ccccc2)nc2c1C(=O)c1ccccc1C2=O | – | 82 | > 100 | 82.8 | 35 | – | 86 | > 100 | – | – | 71.6 | > 100 | – | 64.3
COc1ccc(CC2NCCc3cc(OC)c(OC)cc32)cc1 (stereo not drawn) | – | > 100 | > 100 | > 100 | > 100 | > 100 | > 100 | > 100 | > 100 | > 100 | > 100 | > 100 | – | –
NC1=NN(c2ccccc2)C2(c3ccncc3C(=O)O)C1C(N)=NN2c1ccccc1 (stereo not drawn) | > 100 | > 100 | > 100 | > 100 | > 100 | > 100 | > 100 | – | > 100 | > 100 | > 100 | > 100 | > 100 | > 100
C[C@@H]1OC(=O)C[C@H]2CC(=O)N(CCC3CN(S(=O)(=O)C(F)(F)F)c4ccc(Cc5ccc6c(c5)C(CCN5C[C@H]7[C@@H](CC(=O)O[C@H]7C)CC5=O)CN6S(=O)(=O)C(F)(F)F)cc43)C[C@@H]21 (stereo partly drawn) | > 100 | > 100 | > 100 | > 100 | > 100 | > 100 | > 100 | – | > 100 | > 100 | > 100 | > 100 | > 100 | > 100
O=C(N/N=C/C=C/c1ccc([N+](=O)[O-])o1)c1ccc(Br)s1 | > 100 | 25.7 | 33.5 | 59.7 | 46.7 | 98.4 | > 100 | – | – | 60.7 | 47.3 | > 100 | 64.9 | 49.7
COC1=CC(=O)c2c(O)ccc(O)c2C1=O | 31.6 | 33 | 9.32 | 35.7 | 55.5 | 17.9 | 33 | – | 2.88 | – | 43.8 | 22.1 | 10.1 | 41.4
O=C1OC2c3ccccc3C(=O)C2(c2ccccc2)N1c1ccccc1 (stereo not drawn) | > 200 | > 200 | > 200 | > 200 | > 200 | > 200 | > 200 | – | > 200 | > 200 | > 200 | > 200 | > 200 | > 200
O=C(Nc1ccccc1)Nn1c(-c2cccs2)nc2ccc(I)cc2c1=O | – | 59.7 | > 100 | > 100 | > 100 | > 100 | 71.2 | 47.9 | 65.9 | 49.1 | > 100 | 64.8 | – | > 100
CC(C)CCNC(=O)c1ccc(CNC(=O)/C=C/c2csc(-c3ccccc3)n2)cc1 | > 100 | > 100 | > 100 | > 100 | 79.2 | > 100 | > 100 | – | > 100 | > 100 | > 100 | 96.8 | > 100 | > 100

SMILES | TGI [1] [µM] | TGI [2] [µM] | TGI [3] [µM] | TGI [4] [µM] | TGI [5] [µM] | TGI [6] [µM] | TGI [7] [µM] | TGI [8] [µM] | TGI [9] [µM] | TGI [10] [µM] | TGI [11] [µM] | TGI [12] [µM] | TGI [13] [µM] | TGI [14] [µM]
O=C1c2ccccc2C(=O)C2C3c4ccccc4C(c4ccccc43)C12 (stereo not drawn) | – | – | > 100 | – | 42.3 | 34.9 | > 100 | 30.5 | > 100 | 28.9 | > 100 | > 100 | – | –
CC(C)C(Sc1nc(-c2ccccc2)c(-c2ccccc2)[nH]1)C(=O)N/N=C/c1ccc([N+](=O)[O-])cc1 (stereo not drawn) | 42.6 | 35.4 | 55.6 | 44.8 | > 100 | 40 | 48.2 | 33.6 | 28.8 | 26 | 40.3 | 29.8 | – | –
Nc1ccc(C(=O)NN2C(=O)C(Cl)C2c2ccc([N+](=O)[O-])cc2)cc1 (stereo not drawn) | 38.6 | 37.1 | 35.6 | 41.6 | 56 | 12.2 | 29.1 | – | 31.2 | 5.2 | 34.9 | 5.28 | – | –
CC(C)[Si](OCC1CC(C[C@H]2CC(C[C@H]3C[C@@H](CO[Si](C(C)C)(C(C)C)C(C)C)OC(C)(C)O3)OC(C)(C)O2)OC(C)(C)O1)(C(C)C)C(C)C (stereo partly drawn) | > 100 | > 100 | > 100 | > 100 | > 100 | > 100 | > 100 | > 100 | > 100 | > 100 | > 100 | > 100 | – | –
O=C1SC(c2ccccc2)(c2ccccc2)c2ccccc21 | – | – | > 100 | – | > 100 | > 100 | > 100 | – | > 100 | > 100 | > 100 | > 100 | – | –
Cc1cc(NS(=O)(=O)c2ccc(NC(=O)c3cccc4cc5ccccc5nc34)cc2)no1 | 37 | – | 39.3 | 57.3 | 45.8 | > 100 | > 100 | – | 87.6 | – | – | 75.5 | – | –
O=C(O)C(Cc1cnc[nH]1)N=Cc1nc(-c2ccccc2)oc1O (stereo not drawn) | > 100 | > 100 | > 100 | > 100 | > 100 | > 100 | > 100 | > 100 | > 100 | > 100 | > 100 | > 100 | – | –
COc1cc2c(oc(=O)c3cc4ccoc4c(OC)c32)c2cccc(O)c12 | > 100 | > 100 | > 100 | > 100 | > 100 | > 100 | > 100 | > 100 | > 100 | > 100 | > 100 | > 100 | – | –
COc1cc(S(=O)(=O)Nc2ccc(-c3csc(N4C(=O)C(C)SC4c4ccccc4O)n3)cc2)ccc1Cl (stereo not drawn) | > 100 | > 100 | > 100 | > 100 | > 100 | 49.9 | > 100 | > 100 | – | > 100 | > 100 | – | – | > 100
C[N+](C)(C)Cc1c(CC#N)[nH]c2ccccc12 | > 100 | – | > 100 | > 100 | > 100 | > 100 | – | > 100 | > 100 | > 100 | > 100 | > 100 | – | –
Cc1ccc([N+](=O)[O-])cc1NC(=O)C(=O)Cc1cc(=O)oc2cc(O)ccc12 | > 100 | > 100 | > 100 | > 100 | > 100 | > 100 | > 100 | 94.2 | > 100 | 97 | > 100 | > 100 | – | –
CC1C2(C)OC(=N)C(C#N)(C(c3ccco3)O2)C1(C#N)C#N (stereo not drawn) | > 100 | 47.3 | 93.6 | 83.6 | > 100 | > 100 | > 100 | – | 51.9 | 40.5 | > 100 | 51.5 | 39.5 | > 100
COc1ccc(-c2oc3cc(OC)c(OC)c(OC)c3c(=O)c2OC)cc1OC | > 100 | > 100 | > 100 | > 100 | > 100 | > 100 | > 100 | – | > 100 | > 100 | > 100 | > 100 | > 100 | > 100
O/N=C1/CCCCCC1NO (stereo not drawn) | – | > 100 | > 100 | > 100 | > 100 | > 100 | > 100 | – | > 100 | > 100 | > 100 | > 100 | > 100 | > 100
Clc1ccc2c(c1)CC1C[N+]3=C(CCCC3)C1=C2 (stereo not drawn) | > 100 | > 100 | > 100 | > 100 | > 100 | > 100 | > 100 | – | > 100 | > 100 | > 100 | > 100 | > 100 | > 100
Cc1nc2c(n1CCC(C)C)C(=O)c1ccccc1C2=O | – | – | 44.9 | – | > 100 | 43.1 | > 100 | 37.6 | 56.7 | 30.9 | > 100 | 60.4 | – | –
CCCC(=O)/C=C/S/C=C/C(=O)CCC | – | – | 7.7 | 9.69 | 5.46 | > 100 | > 100 | – | – | 6.27 | 17.9 | 66.2 | 23.8 | –
CNC(=O)c1n[nH]n(Cc2ccccc2)c1=S | – | – | > 100 | > 100 | > 100 | – | > 100 | – | > 100 | – | > 100 | > 100 | > 100 | > 100
